Data reported in PubChem BioAssay AID743355 (Broad Institute, 2014).
Active and inactive are the calls of the source.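 Rule for the calls: active = signal drop with a fitted AC50 at or under twice the sample's highest valid dose; inconclusive = flat fit with signal down 30 to 70%, or poor fit; inactive = the rest, including signal rising.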

tested on: not listed separately; test: viability loss in A549 lung cells – cell-based, luminescence, dry powder, set 9, cytotoxicity control, dose response (AID 743355); details: A549 viability, CellTiter-Glo ATP luminescence, 72 h; at 12 µM (top of the series)

Row | Compound | normalized CellTiter-Glo signal change (more negative = more cytotoxic)
1 | N#Cc1ccc(N2CCN(C(=O)c3ccc4c(c3)OCO4)CC2)cc1 | -5.47% (inactive)

same assay, conditions: A549 viability, CellTiter-Glo ATP luminescence, 72 h; at 26 µM (top of the series)

Row | Compound | normalized CellTiter-Glo signal change (more negative = more cytotoxic)
2 | CC(=O)c1ccc(N2CCN(C(=O)c3cc4c(cn3)OCO4)CC2)cc1 | -11.9% (inactive)
3 | CC(=O)c1ccc(N2CCN(C(=O)c3ccc4c(c3)OCO4)CC2)cc1 | -7.97% (inactive)
4 | CC(=O)c1ccc(N2CCN(C(=O)c3ccc4c(c3)OC(C)(C)O4)CC2)cc1 | 5.78% (inactive)
5 | O=C(c1ccc2c(c1)OCO2)N1CCN(c2ccc(S(=O)(=O)C(F)F)cc2)CC1 | 17.7% (inactive)
6 | O=C(c1ccc2c(c1)OCO2)N1CCN(c2ccc(C(F)(F)F)cc2)CC1 | 1.09% (inactive)
7 | CN(C)S(=O)(=O)c1ccc(N2CCN(C(=O)c3ccc4c(c3)OCO4)CC2)cc1 | -6.83% (inactive)
8 | O=C(c1ccc2c(c1)OCO2)N1CCN(c2ccc(S(=O)(=O)C(F)(F)F)cc2)CC1 | 21.5% (inactive)
9 | CS(=O)(=O)c1ccc(N2CCN(C(=O)c3ccc4c(c3)OCO4)CC2)cc1 | -1.14% (inactive)
10 | CC(=O)c1ccc(N2CCN(C(=O)c3ccc4c(c3C)OCO4)CC2)cc1 | -3.63% (inactive)
11 | CC(=O)c1ccc(N2CCN(C(=O)Nc3ccc4c(c3)OCO4)CC2)cc1 | -14.7% (inactive)
12 | CC(=O)c1ccc(N2CCN(C(=O)c3cccc4c3OCO4)CC2)cc1 | 2.91% (inactive)
13 | CC(=O)c1ccc(N2CCN(C(=O)c3cc4c(cc3Cl)OCO4)CC2)cc1 | 2.51% (inactive)
14 | CC(=O)c1ccc(N2CCN(C(=O)c3cc(Cl)c4c(c3)OCO4)CC2)cc1 | 6.94% (inactive)
15 | COc1cc2c(cc1C(=O)N1CCN(c3ccc(C(C)=O)cc3)CC1)OCO2 | -2.21% (inactive)
16 | CC(=O)c1ccc(N2CCN(C(=O)c3ccc4snnc4c3)CC2)cc1 | -3.89% (inactive)
17 | CC(=O)c1ccc(N2CCN(C(=O)c3ccc4ocnc4c3)CC2)cc1 | 4.94% (inactive)
18 | O=C(c1ccc2c(c1)OCO2)N1CCN(c2ccc(OC(F)(F)F)cc2)CC1 | 6.83% (inactive)
19 | CC(=O)c1ccc(N2CCN(S(=O)(=O)c3ccc4c(c3)OCO4)CC2)cc1 | -10.1% (inactive)
20 | CC(=O)c1ccc(N2CCN(C(=O)c3ccc4c(c3)OC(F)(F)O4)CC2)cc1 | -2.42% (inactive)
21 | CC(=O)c1ccc(N2CCN(C(=O)c3ccc(Cl)c(Cl)c3)CC2)cc1 | 5.05% (inactive)
22 | CC(=O)c1ccc(N2CCCN(C(=O)c3ccc4c(c3)OCO4)CC2)cc1 | 9.8% (inactive)
23 | COc1ccc(C(=O)N2CCN(c3ccc(C(C)=O)cc3)CC2)cc1OC | 51.5% (inactive)
24 | CC(=O)c1ccc(N2CCN(C(=O)c3cc4c(cc3C)OCO4)CC2)cc1 | 1.8% (inactive)
25 | CC(=O)c1ccc(N2CC3CC2CN3C(=O)c2ccc3c(c2)OCO3)cc1 (stereo unspecified) | -9.16% (inactive)

tested on: A549 viability, CellTiter-Glo ATP luminescence, 72 h; test: as above; details: not given

Row | Compound | AC50
26 | COc1cc(C(=O)N2CCN(c3ccc(C(C)=O)cc3)CC2)cc2c1OCO2 | > 52 µM (inactive)
